Measurements: PubChem BioAssay (NCI)
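Method: 48-hour compound exposure of cells in 96-well plates, five concentrations, linear interpolation of endpoints. GI50 marks 50% less growth. Definition used: TGI = concentration required for complete inhibition of growth.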

Columns and labels:
Experiment in all cases: NCI anticancer screen, dose series, 48 h
[1] = tested on: NCI-H522 lung
[2] = tested on: SF-539 CNS
[3] = tested on: T-47D breast
[4] = tested on: A498 renal
[5] = tested on: ACHN renal
[6] = tested on: MDA-MB-435
[7] = tested on: UACC-62 melanoma
[8] = tested on: HCT-15 colon
[9] = tested on: SK-MEL-5 melanoma
[10] = tested on: MOLT-4 leukemia
[11] = tested on: OVCAR-5 ovarian
[12] = tested on: COLO 205 colon
[13] = tested on: SK-MEL-2 melanoma
[14] = tested on: A549 NSCLC
[15] = tested on: SK-OV-3 ovarian
[16] = tested on: NCI-H460 lung
[17] = tested on: RPMI-8226 leukemia
[18] = tested on: SW-620 colon
[19] = tested on: UACC-257 melanoma
[20] = tested on: CAKI-1 renal
[21] = tested on: BT-549 breast
[22] = tested on: SR leukemia
[23] = tested on: U251 CNS
[24] = tested on: SF-268 CNS
[25] = tested on: HT29 colon
[26] = tested on: LOX IMVI melanoma
[27] = tested on: HOP-92 NSCLC
[28] = tested on: M14 melanoma
[29] = tested on: MDA-MB-231 breast
[30] = tested on: HOP-62 NSCLC
[31] = tested on: OVCAR-3 ovarian
[32] = tested on: KM12 colon
[33] = tested on: 786-0 renal
[34] = tested on: CCRF-CEM leukemia
[35] = tested on: K-562 leukemia
[36] = tested on: SNB-75 CNS
[37] = tested on: HS 578T breast
[38] = tested on: SF-295 CNS
[39] = tested on: NCI-H226 lung
[40] = tested on: NCI-H23 lung
[41] = tested on: MALME-3M melanoma
[42] = tested on: IGROV1 ovarian
[43] = tested on: DU-145 prostate
[44] = tested on: PC-3 prostate
[45] = tested on: UO-31 renal
[46] = tested on: HL-60(TB) leukemia
[47] = tested on: TK-10 renal
[48] = tested on: RXF 393 renal
[49] = tested on: HCC-2998 colon
[50] = tested on: SNB-19 CNS
[51] = tested on: EKVX NSCLC
[52] = tested on: HCT-116 colon
[53] = tested on: OVCAR-8 ovarian
[54] = tested on: SK-MEL-28 melanoma
[55] = tested on: NCI/ADR-RES ovarian
[56] = tested on: OVCAR-4 ovarian
[57] = tested on: MCF7 breast
[58] = tested on: SN12C renal

C[n+]1cc2c3c(ccc2c2ccc4cc5c(cc4c21)OCO5)OCO3
GI50 [1]: 300 nM
TGI [1]: 1410 nM
GI50 [2]: 1420 nM
TGI [2]: 3020 nM
GI50 [3]: 1420 nM
TGI [3]: 3130 nM
GI50 [4]: 1540 nM
TGI [4]: 3120 nM
GI50 [5]: 788 nM
TGI [5]: 2090 nM
GI50 [6]: 317 nM
TGI [6]: 1110 nM
GI50 [7]: 744 nM
TGI [7]: 2080 nM
GI50 [8]: 631 nM
TGI [8]: 2290 nM
GI50 [9]: 1160 nM
TGI [9]: 2390 nM
GI50 [10]: 300 nM
TGI [10]: 697 nM
GI50 [11]: 1160 nM
TGI [11]: 2420 nM
GI50 [12]: 255 nM
TGI [12]: 778 nM
GI50 [13]: 1330 nM
TGI [13]: 2790 nM
GI50 [14]: 322 nM
TGI [14]: 1150 nM
GI50 [15]: 1210 nM
TGI [15]: 2450 nM
GI50 [16]: 1290 nM
TGI [16]: 3700 nM
GI50 [17]: 365 nM
TGI [17]: 1880 nM
GI50 [18]: 174 nM
TGI [18]: 360 nM
GI50 [19]: 1180 nM
TGI [19]: 2430 nM
GI50 [20]: 735 nM
TGI [20]: 2130 nM
GI50 [21]: 784 nM
TGI [21]: 2080 nM
GI50 [22]: 258 nM
GI50 [23]: 331 nM
TGI [23]: 1280 nM
GI50 [24]: 489 nM
TGI [24]: 1700 nM
GI50 [25]: 507 nM
TGI [25]: 1870 nM
GI50 [26]: 171 nM
TGI [26]: 411 nM
GI50 [27]: 584 nM
TGI [27]: 2050 nM
GI50 [28]: 412 nM
TGI [28]: 1600 nM
GI50 [29]: 630 nM
TGI [29]: 1980 nM
GI50 [30]: 349 nM
TGI [30]: 1440 nM
GI50 [31]: 278 nM
TGI [31]: 758 nM
GI50 [32]: 455 nM
TGI [32]: 1640 nM
GI50 [33]: 1020 nM
TGI [33]: 2260 nM
GI50 [34]: 217 nM
TGI [34]: 1150 nM
GI50 [35]: 470 nM
TGI [35]: 3060 nM
GI50 [36]: 1010 nM
TGI [36]: 2170 nM
GI50 [37]: 2110 nM
TGI [37]: > 24600 nM
GI50 [38]: 1220 nM
TGI [38]: 2530 nM
GI50 [39]: 1540 nM
TGI [39]: 2980 nM
GI50 [40]: 720 nM
TGI [40]: 2180 nM
GI50 [41]: 564 nM
TGI [41]: 1830 nM
GI50 [42]: 1180 nM
TGI [42]: 2480 nM
GI50 [43]: 726 nM
TGI [43]: 1960 nM
GI50 [44]: 668 nM
TGI [44]: 2080 nM
GI50 [45]: 359 nM
TGI [45]: 1700 nM
GI50 [46]: 445 nM
TGI [46]: 2700 nM
GI50 [47]: 1330 nM
TGI [47]: 2650 nM
GI50 [48]: 351 nM
TGI [48]: 1320 nM
GI50 [49]: 1470 nM
TGI [49]: 2920 nM
GI50 [50]: 1290 nM
TGI [50]: 2720 nM
GI50 [51]: 1330 nM
TGI [51]: 2650 nM
GI50 [52]: 227 nM
TGI [52]: 593 nM
GI50 [53]: 326 nM
TGI [53]: 1400 nM
GI50 [54]: 1220 nM
TGI [54]: 2480 nM

CCOC(=O)C1(C(=O)OCC)CCC(C(OC)OC)C(CC(=O)OC)C1 (centres undefined)
TGI [3]: > 10000 nM
TGI [5]: > 10000 nM
TGI [6]: > 10000 nM
TGI [7]: > 10000 nM
TGI [9]: > 10000 nM
TGI [55]: > 10000 nM
TGI [10]: > 10000 nM
TGI [12]: > 10000 nM
TGI [13]: > 10000 nM
TGI [14]: > 10000 nM
TGI [15]: > 10000 nM
TGI [16]: > 10000 nM
TGI [17]: > 10000 nM
TGI [18]: > 10000 nM
TGI [20]: > 10000 nM
TGI [22]: > 10000 nM
TGI [23]: > 10000 nM
TGI [24]: > 10000 nM
TGI [27]: > 10000 nM
TGI [28]: > 10000 nM
TGI [30]: > 10000 nM
TGI [56]: > 10000 nM
TGI [33]: > 10000 nM
TGI [34]: > 10000 nM
TGI [35]: > 10000 nM
TGI [36]: > 10000 nM
TGI [40]: > 10000 nM
TGI [41]: > 10000 nM
TGI [42]: > 10000 nM
TGI [46]: > 10000 nM
TGI [48]: > 10000 nM
TGI [57]: > 10000 nM
TGI [54]: > 10000 nM

N=C(N)c1ccc(-c2ccc(-c3ccc(Cl)cc3Cl)o2)cc1
GI50 [5]: 1680 nM
TGI [5]: 3060 nM
GI50 [6]: 1700 nM
TGI [6]: 3090 nM
GI50 [9]: 1740 nM
TGI [9]: 3130 nM
GI50 [11]: 1530 nM
TGI [11]: 2950 nM
GI50 [15]: 1620 nM
TGI [15]: 3230 nM
GI50 [24]: 2030 nM
TGI [24]: 4650 nM
GI50 [36]: 1400 nM
TGI [36]: 2730 nM
GI50 [37]: 2130 nM
TGI [37]: 4990 nM
GI50 [39]: 1820 nM
TGI [39]: 4280 nM
GI50 [45]: 1670 nM
TGI [45]: 3180 nM
GI50 [54]: 1610 nM
TGI [54]: 3030 nM

O=c1[nH]c(=O)n(C2CC(O)C(CO)O2)cc1OC/C=C/Cc1ccccc1 (centres undefined)
TGI [1]: > 100000 nM
TGI [3]: > 100000 nM
TGI [5]: > 100000 nM
TGI [6]: > 100000 nM
TGI [7]: > 100000 nM
TGI [8]: > 100000 nM
TGI [9]: > 100000 nM
TGI [55]: > 100000 nM
TGI [10]: > 100000 nM
TGI [11]: > 100000 nM
TGI [12]: > 100000 nM
TGI [14]: > 100000 nM
TGI [15]: > 100000 nM
TGI [16]: > 100000 nM
TGI [17]: > 100000 nM
TGI [19]: > 100000 nM
TGI [20]: > 100000 nM
TGI [21]: > 100000 nM
TGI [22]: > 100000 nM
TGI [23]: > 100000 nM
TGI [24]: > 100000 nM
TGI [25]: > 100000 nM
TGI [26]: > 100000 nM
TGI [28]: > 100000 nM
TGI [29]: > 100000 nM
TGI [30]: > 100000 nM
TGI [31]: > 100000 nM
TGI [32]: > 100000 nM
TGI [56]: > 100000 nM
TGI [33]: > 100000 nM
TGI [34]: > 100000 nM
TGI [35]: > 100000 nM
TGI [36]: > 100000 nM
TGI [58]: > 100000 nM
TGI [37]: > 100000 nM
TGI [38]: > 100000 nM
TGI [39]: > 100000 nM
TGI [40]: > 100000 nM
TGI [41]: > 100000 nM
TGI [42]: > 100000 nM
TGI [43]: > 100000 nM
TGI [44]: > 100000 nM
TGI [45]: > 100000 nM
TGI [46]: > 100000 nM
TGI [47]: > 100000 nM
TGI [48]: > 100000 nM
TGI [50]: > 100000 nM
TGI [57]: > 100000 nM
TGI [51]: > 100000 nM
TGI [52]: > 100000 nM
TGI [53]: > 100000 nM
TGI [54]: > 100000 nM
